In ChEMBL document CHEMBL1141830, “Stereoselective total synthesis of (3R,8S)-falcarindiol, a common polyacetylenic compound from umbellifers” (J Nat Prod, 1999):
≈ marks a conversion by molar mass, not a printed value.

Columns and labels:
Bacillus subtilis = assay: Antimicrobial activity against Bacillus subtilis Vernon; format: functional
Staphylococcus aureus [1] = assay: Antimicrobial activity against methicillin-resistant Staphylococcus aureus SAP0017; format: functional
[2] = Antiproliferative activity against human MK1 cells by MTT assay; format: cell-based; details: read-out: ED50 (the source's name)
Staphylococcus aureus [3] = assay: Antimicrobial activity against methicillin-sensitive Staphylococcus aureus K147; format: functional
Escherichia coli = assay: Antimicrobial activity against Escherichia coli DC2; format: functional

## C=C[C@@H](O)C#CC#C[C@@H](O)/C=C\CCCCCCC [FALCARINDIOL]
Bacillus subtilis
  MIC: 12.5 µg/mL (≈ 48 µM)
Staphylococcus aureus [1]
  MIC: 25 µg/mL (≈ 96 µM)
[2]
  GI50: 3.2 µg/mL (≈ 12.3 µM)
Staphylococcus aureus [3]
  MIC: 12.5 µg/mL (≈ 48 µM)
Escherichia coli
  MIC: 2.5 µg/mL (≈ 9.6 µM)
